Data taken from US20250205184A1, “COLD COMPRESS SPRAY FOR RELIEVING GOUT AND PREPARATION METHOD THEREOF” (priority 2023, published 2025).

Tested on: ankle joint swelling of rats caused by sodium urate crystals
Test: Acute plantar/ankle joint swelling of rat caused by sodium urate crystals
Assay type: in vivo
Details: X ± SD, n = 9
Description: A process of preparing sodium urate crystallization and a sodium urate solution is as follows: 2 g of uric acid are added into 400 mL of boiling water to obtain an uric acid solution; a pH value of the uric acid solution is adjusted to 7.4 by using NaOH (1N) to obtain an adjusted solution; the adjusted solution is heated to a temperature of 95° C. to obtain a heated solution; then the heated solution is cooled and stirred gently at a room temperature to obtain a cooled solution; the cooled solution is allowed to stand for 4-6 hours at 4° C. to precipitate flocculent precipitates; microcrystalline sodium urate is obtained by filtering, and the microcrystalline sodium urate is sterilized at a high temperature of 80° C. 1000 milligrams (mg) of the sodium urate are ground fully to obtain sodium urate powder, and the sodium urate powder is added into 20 mL of sterile physiological saline to prepare a suspension with a concentration of 50 g/L (5%).
A process of grouping and administration is as follows: rats are adaptively fed for 3 days and randomly divided into 7 groups based on body weights. The 7 groups include a model control group, a positive drug indomethacin group, a first group, a second group, and a third group, a first comparison group, and a second comparison group. One hour before inflammation, the positive drug indomethacin group is administered with indomethacin through gavage (10 mL/kg). The first group is immediately administered with the cold compress spray (0.1 mL for each rat) obtained in the embodiment 1 after modeling; the second group is immediately administered with the cold compress spray (0.1 mL for each rat) obtained in the embodiment 2 after modeling; the third group is immediately administered with the cold compress spray (0.1 mL for each rat) obtained in the embodiment 3 after modeling; the first comparison group is immediately administered with the cold compress spray (0.1 mL for each rat) obtained in the comparative embodiment 1 after modeling; the second comparison group is immediately administered with the cold compress spray (0.1 mL for each rat) obtained in the comparative embodiment 2 after modeling; and the model control group is immediately administered with an excipient (0.1 mL for each rat) after modeling. Furthermore, after inflammation, the first group, the second group, the third group, the first comparison group, and the second comparison group are administered with corresponding cold compress sprays again after measurements of joint swelling at 6, 12, and 24 hours.
A process of modeling is as follows: an area around an ankle joint of a right hind limb of each rat is marked with a marker pen, and a joint circumference is measured as a normal value using a plantar volume meter. 0.2 mL of 5% sodium urate suspension are injected (the joint of each rat is extended and a needle is inserted at 45 degrees) into a joint cavity on a dorsal side of the right ankle joint of each rat of each group. Here, the modeling of each group is completed.
Results of joint swelling are as follows: a volume of the right ankle joint of each rat at 6, 12, 24, and 48 hours after inflammation is measured.

COc1ccc2c(c1)c(CC(=O)O)c(C)n2C(=O)c1ccc(Cl)cc1 [Indomethacin, indomethacin]
Volume of after modeling, 6 h (right ankle joint volume 6 h after inflammation): 2.42 ± 0.15 mL
Volume of after modeling, 12 h (right ankle joint volume 12 h after inflammation): 2.29 ± 0.30 mL
Volume of after modeling, 24 h (right ankle joint volume 24 h after inflammation): 2.18 ± 0.09 mL
Volume of after modeling, 48 h (right ankle joint volume 48 h after inflammation): 2.16 ± 0.14 mL
Volume before modeling (right ankle joint volume, baseline before sodium urate injection): 2.12 ± 0.21 mL
